These are literature values, as cited in article PMC3176332 (European journal of medicinal chemistry, 2009).

Each structure is given as a SMILES string.

This series deals with ERβ. To be noted: relative to estradiol.

In the case of `O=c1c(-c2ccc(O)cc2)coc2cc(O)cc(O)c12` [compound 2, genistein], the ERβ binding selectivity is 20 fold.
